Consider one compound from US20100292509A1, “VEGFC PRODUCTION PROMOTER” (Shiseido Company, Ltd, priority 2008, published 2010).

In this experiment the test system is VEGFC. The settings on record: HaCaT cells; 7% by weight drug solution added at 1/100, 1/1000 or 1/10000 the amount of culture liquid; 48 hours; solvent control assigned 100; FIG. 1.

Procedure: HaCaT cells, which are cultured cells derived from human epidermis (German Cancer Research Center, Heidelberg, Germany), were cultured in DMEM containing 10% FBS and seeded into a 24-well plate at 15×10^4 cells per well. After about 24 hours, the medium was replaced with serum-free DMEM followed by culturing for 24 hours. Subsequently, a solution of a candidate drug dissolved in water to a concentration of 7% by weight was added in an amount equal to 1/100, 1/1000 or 1/10000 the amount of culture liquid followed by additional culturing. 48 hours after adding the drug, the culture supernatant was recovered and the amount of VEGFC in the culture supernatant was quantified by ELISA (R&D Systems) in accordance with the protocol. In addition, Alamar Blue (TREK Diagnostic Systems) was added to the cells following recovery of culture supernatant followed by measurement of the number of cells as fluorescence intensity (Ex: 544 nm, Em: 590 nm). The amount of VEGFC expressed per cell was determined by dividing the amount of VEGFC in the culture supernatant by the fluorescence value of the Alamar Blue. A solvent in the form of 70% EtOH was added to the cells instead of drug for use as a control, and the value thereof was assigned a value of 100. In addition, 5% FBS was used as a positive control.

On to `CNC(=O)[C@H]1CC[C@H](CN)CC1.Cl` [tranexamic acid methylamide hydrochloride], for which the “VEGFC induction activity (amount of VEGFC expressed per cell)” value is “dose-dependent VEGFC induction activity that exceeded that of the control”.
